Source: patent US5703241A, “Inhibitor of farnesyl-protein transferase” (Merck & Co., Inc., priority 1996, dated 1997)

How the values were obtained:
[1] = system: farnesyl-protein transferase in white blood cells; assay: In vivo pharmacodynamic effects of farnesyl-protein transferase inhibitors in mammalian white blood cells; details: following a single administration of the compound
Procedure: In vivo pharmacodynamic effects of farnesyl-protein transferase inhibitors in mammalian white blood cells
The test mammal (beagle, Cynomolgus monkey, Rhesus monkey or African green monkey) is dosed by an IV, PO or suppository dose of a given concentration of drug in a suitable vehicle, such as IV:5% EtOH/citrate buffered saline, PO:50 mmol citric acid in water and suppository: 17.7% compound, 38% hydrous lactose; 44.3% PEG 8000.
Following drug dosing, the animals are bled at times t=0, 5 mins., 15 mins., 30 mins., 60 mins., 90 mins., 180 mins.(3 hours), 270 mins. (4.5 hours), 360 mins. (6 hours) and 1440 mins. (24 hours) by withdrawing 3 mL of blood into a sodium heparin vacutainer tube and placing the drawn blood immediately on ice. The vacutainer tubes are then spun at 2800 rpm in a table top centrifuge for 5 minutes at 4 degrees. Following the spin, the upper plasma layer is withdrawn from the vacutainer tube leaving an 1/8" of plasma on top of the blood pellet. The vacutainer tubes and plasma tubes are then put into dry ice for a quick freeze and once frozen, the samples are stored at -70° degrees.
For evaluation of the white blood cells, the frozen vacutainer tube is broken at the bottom utilizing a triangular metal file, and the frozen pellet of blood is removed (prior to breaking the tube it can warmed slightly in a 30° bath taking precautions not to melt the pellet). […]

human FPTase = target: T1, human FPTase (Homo sapiens, UniProt P49354+P49356); assay: In vitro inhibition of human farnesyl-protein transferase ([3H]-FPP incorporation into Ras-CVIM); assay type: biochemical; details: 100 nM Ras-CVIM, 30 min, read-out: IC50, inhibitory activity against human FPTase
T1 construct: made in house

COc1ccccc1CN(CC(=O)N[C@@H](CCSC)C(=O)OC(C)C)C[C@@H]1CCCN1C(=O)CCc1c[nH]cn1 [Example 1, N-[1-(1H-Imidazol-4-propionyl)pyrrolidin-2(S)-ylmethyl]-N-(2-methoxybenzyl) glycyl-methionine isopropyl ester]
inhibition of FPTase in white blood cells of mammals [1]: sustained inhibition of FPTase in white blood cells

COc1ccccc1CN(CC(=O)N[C@@H](CCSC)C(=O)O)C[C@@H]1CCCN1C(=O)CCc1c[nH]cn1 [Example 2, N-[1-(1H-Imidazol-4-propionyl)pyrrolidin-2(S)-ylmethyl]-N-(2-methoxybenzyl)glycyl-methionine]
IC50 (human FPTase): < 10 µM
